Data: patent US20090325959A1 (priority 2008, published 2009)
Like-named read-outs stand apart in the source and are kept apart here.

Columns and labels:
ROCK1 = biological target: T1, ROCK1 (Homo sapiens, UniProt Q13464); experiment: Rho kinase inhibition assay (IMAP fluorescence polarization), ROCK1; type: biochemical;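 also: kinase reaction run 60 min at room temperature, then phosphorylated substrate captured on IMAP beads for 30 min, with fluorescence polarization read in mP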
T1 construct: purchased Upstate/Chemicon 14-601
T1 sequence (Q13464 17-535 limits assumed): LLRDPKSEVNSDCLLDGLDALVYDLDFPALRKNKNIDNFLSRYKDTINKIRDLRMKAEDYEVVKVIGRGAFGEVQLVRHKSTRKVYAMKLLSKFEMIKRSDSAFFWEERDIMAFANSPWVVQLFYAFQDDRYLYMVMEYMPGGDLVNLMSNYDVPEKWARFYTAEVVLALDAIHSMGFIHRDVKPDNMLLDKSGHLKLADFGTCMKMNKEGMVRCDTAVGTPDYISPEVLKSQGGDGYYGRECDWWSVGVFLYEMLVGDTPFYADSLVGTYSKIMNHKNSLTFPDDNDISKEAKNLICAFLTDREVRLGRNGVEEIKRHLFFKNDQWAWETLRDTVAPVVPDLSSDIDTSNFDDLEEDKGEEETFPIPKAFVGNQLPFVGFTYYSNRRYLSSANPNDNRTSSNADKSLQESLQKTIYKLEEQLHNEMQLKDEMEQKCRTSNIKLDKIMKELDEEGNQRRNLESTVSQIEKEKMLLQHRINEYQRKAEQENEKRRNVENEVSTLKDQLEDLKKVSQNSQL
Description: (§1) Following the pre-incubation, 10 μM ATP was added to initiate the reaction. After 60 minutes at room temperature, Molecular Devices IMAP™ binding solution was added to bind phosphorylated substrate. After 30 minutes of incubation in the presence of the IMAP™ beads, the fluorescence polarization was read and the ratio was reported as mP. IC50 values for compounds and EC50 values for ATP were calculated using the Prism software from Graphpad.

ROCK2 = biological target: T2, ROCK2 (Homo sapiens, UniProt O75116); experiment: Rho kinase inhibition assay (IMAP fluorescence polarization), ROCK2; type: biochemical;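 also: kinase reaction started with 10 µM ATP and run 60 min at room temperature, then phosphorylated substrate captured on IMAP beads for 30 min and fluorescence polarization read in mP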
T2 construct: purchased Upstate/Chemicon 14-451
T2 sequence (O75116 11-552 limits assumed): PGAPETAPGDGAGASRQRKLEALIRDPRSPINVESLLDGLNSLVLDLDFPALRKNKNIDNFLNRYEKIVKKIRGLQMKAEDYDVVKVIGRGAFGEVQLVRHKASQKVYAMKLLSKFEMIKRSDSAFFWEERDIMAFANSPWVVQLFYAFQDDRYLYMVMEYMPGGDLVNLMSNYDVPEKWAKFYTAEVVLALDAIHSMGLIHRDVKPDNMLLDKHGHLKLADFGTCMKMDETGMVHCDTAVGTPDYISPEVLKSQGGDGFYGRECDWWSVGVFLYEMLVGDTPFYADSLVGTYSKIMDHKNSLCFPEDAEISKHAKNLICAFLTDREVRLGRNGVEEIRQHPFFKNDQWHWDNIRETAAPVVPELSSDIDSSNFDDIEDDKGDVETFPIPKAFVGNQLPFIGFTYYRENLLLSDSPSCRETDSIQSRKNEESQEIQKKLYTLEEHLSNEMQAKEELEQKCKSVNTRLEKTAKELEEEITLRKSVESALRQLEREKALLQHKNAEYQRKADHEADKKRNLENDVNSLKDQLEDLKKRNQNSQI
Description: as §1

[1] = 10 μM ATP, read-out: ROCK2 Ki, Avg

Row | SMILES | Ki (ROCK1; Avg, 10 μM ATP) | Ki (ROCK1; average Ki) | Ki (ROCK2; [1]) | Ki (ROCK2; average Ki, read-out: ROCK2 Ki)
1 | O=S(=O)(Nc1cccc(CN2CCC[C@H](Nc3ccc4[nH]ncc4c3)C2)c1)N1CCCCC1 [Compound 1.270, (S)-N-(3-((3-(1H-indazol-5-ylamino)piperidin-1-yl)methyl)phenyl)piperidine-1-sulfonamide] | 130 nM | 130 nM | 9.9 nM | 9.9 nM
2 | c1ccc(Cn2cc(CN3CCC[C@@H](Nc4ccc5[nH]ncc5c4)C3)c3ccccc32)cc1 [Compound 1.271, (R)-N-(11-((1-benzyl-1H-indol-3-yl)methyl)piperidin-3-yl)-1H-indazol-5-amine] | 332 nM |  | 77.7 nM | 
3 | CS(=O)(=O)N1CCCc2cc(CN3CCC[C@H](Nc4ccc5[nH]ncc5c4)C3)ccc21 [Compound 1.272, (S)-N-(1-((1-(methylsulfonyl)-1,2,3,4-tetrahydroquinolin-6-yl)methyl)piperidin-3-yl)-1H-indazol-5-amine] | 1820 nM |  | 194 nM | 
4 | OCCn1cc(CN2CCC[C@@H](Nc3ccc4[nH]ncc4c3)C2)c2ccccc21 [Compound 1.273, (R)-2-(3-((3-(1H-indazol-5-ylamino)piperidin-1-yl)methyl)-1H-indol-1-yl)ethanol] | 31.3 nM | 31.3 nM | 8.2 nM | 8.2 nM
5 | Cc1c(CN2CCC[C@H](Nc3ccc4[nH]ncc4c3)C2)cccc1NS(C)(=O)=O [Compound 1.274, (S)-N-(3-((3-(1H-indazol-5-ylamino)piperidin-1-yl)methyl)-2-methylphenyl)methanesulfonamide] | 223 nM |  | 10.7 nM | 
6 | Cc1ccc(CN2CC[C@@H](Nc3ccc4[nH]ncc4c3)C2)cc1OCCO [Compound 1.276] | 64.2 nM |  | 12.3 nM | 
7 | Cc1nc(CN2CCC[C@H](Nc3ccc4[nH]ncc4c3)C2)c(C)o1 [Compound 1.279, (S)-N-(1-((2,5-dimethyloxazol-4-yl)methyl)piperidin-3-yl)-1H-indazol-5-amine] | 456 nM |  | 34.2 nM | 
8 | COc1c(CN2CCC[C@H](Nc3ccc4[nH]ncc4c3)C2)cccc1NS(C)(=O)=O [Compound 1.280, (S)-N-(3-((3-(1H-indazol-5-ylamino)piperidin-1-yl)methyl)-2-methoxyphenyl)methanesulfonamide] | 746 nM |  | 38 nM | 
9 | Cc1ccc(CN2CCC[C@@H](Nc3ccc4[nH]ncc4c3)C2)cc1OCC(N)=O [Compound 1.281] | 71.8 nM | 71.8 nM | 7.4 nM | 7.4 nM
10 | N#Cc1cccc(CN2CCC(Nc3cccc4cnccc34)C2)c1 (stereo not drawn) [Compound 2.007, 3-((3-(isoquinolin-5-ylamino)pyrrolidin-1-yl)methyl)benzonitrile] | 390 nM |  | 179 nM | 
11 | c1cc(CN2CC[C@@H](Nc3cccc4cnccc34)C2)cc(C2CC2)c1 [Compound 2.020, (R)-N-(1-(3-cyclopropylbenzyl)pyrrolidin-3-yl)isoquinolin-5-amine] | 101 nM |  | 36.5 nM | 
12 | CS(=O)(=O)Nc1cccc(CN2CCC[C@H](Nc3cccc4cnccc34)C2)c1 [Compound 2.037, (S)-N-(3-((3-(isoquinolin-5-ylamino)piperidin-1-yl)methyl)phenyl)methanesulfonamide] | 921 nM |  | 182 nM | 
13 | NC(=O)COc1cccc(CN2CC[C@@H](Nc3cccc4cnccc34)C2)c1 [Compound 2.040, (R)-2-(3-((3-(isoquinolin-5-ylamino)pyrrolidin-1-yl)methyl)phenoxy)acetamide] | 59.6 nM |  | 25.4 nM | 
14 | O=C(COc1cccc(CN2CC[C@@H](Nc3cccc4cnccc34)C2)c1)N1CCOCC1 [Compound 2.043, (R)-2-(3-((3-(isoquinolin-5-ylamino)pyrrolidin-1-yl)methyl)phenoxy)-1-morpholinoethanone] | 49.4 nM |  | 21.5 nM | 
15 | O=C(O)COc1cccc(CN2CC[C@@H](Nc3cccc4cnccc34)C2)c1 [Compound 2.044, (R)-2-(3-((3-(isoquinolin-5-ylamino)pyrrolidin-1-yl)methyl)phenoxy)acetic acid] | 81.4 nM |  | 24.1 nM | 
16 | Clc1ccc(CN2CC[C@@H](Nc3cccc4cnccc34)C2)cc1Cl [Compound 2.048, (R)-N-(1-(3,4-dichlorobenzyl)pyrrolidin-3-yl)isoquinolin-5-amine] | 71.5 nM |  | 34.6 nM | 
17 | FC(F)(F)c1cccc(CN2CC[C@@H](Nc3cccc4cnccc34)C2)c1 [Compound 2.049, (R)-N-(1-(3-(trifluoromethyl)benzyl)pyrrolidin-3-yl)isoquinolin-5-amlne] | 113 nM |  | 48 nM | 
18 | c1ccc(CN2CCC[C@H](Nc3cccc4cnccc34)C2)cc1 [Compound 2.050, (S)-N-(1-benzylpiperidin-3-yl)isoquinolin-5-amine] | 368 nM |  | 251 nM | 
19 | CSc1ccc(CN2CCC[C@H](Nc3cccc4cnccc34)C2)cc1 [Compound 2.051, (S)-N-(1-(4-(methylthio)benzyl)piperidin-3-yl)isoquinolin-5-amine] | 1440 nM |  | 1180 nM | 
20 | COc1ccc(CN2CCC[C@H](Nc3cccc4cnccc34)C2)cc1 [Compound 2.053, (S)-N-(1-(4-methoxybenzyl)piperidin-3-yl)isoquinolin-5-amine] | 952 nM |  | 182 nM | 
21 | c1cc(N[C@@H]2CCN(Cc3ccc4c(c3)OCCO4)C2)c2ccncc2c1 [Compound 2.056, (R)-N-(1-((2,3-dihydrobenzo[b][1,4]dioxin-6-yl)methyl)pyrrolidin-3-yl)isoquinolin-5-amine] | 107 nM |  | 48.7 nM | 
22 | Fc1ccc(CN2CC[C@@H](Nc3cccc4cnccc34)C2)cc1F [Compound 2.062, (R)-N-(1-(3,4-difluorobenzyl)pyrrolidin-3-yl)isoquinolin-5-amine] | 63.4 nM |  | 30.5 nM | 
23 | CC(=O)NCc1cccc(CN2CC[C@@H](Nc3cccc4cnccc34)C2)c1 [Compound 2.063, (R)-N-(3-((3-(isoquinolin-5-ylamino)pyrrolidin-1-yl)methyl)benzyl)acetamide] | 206 nM |  | 73.9 nM | 
24 | COc1ccc(CN2CC[C@@H](Nc3cccc4cnccc34)C2)cc1OCCO [Compound 2.067, (R)-2-(5-((3-(isoquinolin-5-ylamino)pyrrolidin-1-yl)methyl)-2-methoxyphenoxy)ethanol] | 19.6 nM | 19.6 nM | 4.2 nM | 4.2 nM
25 | OCCOc1cc(CN2CC[C@@H](Nc3cccc4cnccc34)C2)ccc1F [Compound 2.068, (R)-2-(2-fluoro-5-((3-(isoquinolin-5-ylamino)pyrrolidin-1-yl)methyl)phenoxy)ethanol] | 8 nM | 8 nM | 5.8 nM | 5.8 nM
26 | O=S(=O)(Nc1cccc(CN2CC[C@@H](Nc3cccc4cnccc34)C2)c1)N1CCCCC1 [Compound 2.069, (R)-N-(3-((3-(isoquinolin-5-ylamino)pyrrolidin-1-yl)methyl)phenyl)piperidine-1-sulfonamide] | 16.7 nM | 16.7 nM | 2.4 nM | 2.4 nM
27 | CS(=O)(=O)N1CCCc2cc(CN3CC[C@@H](Nc4cccc5cnccc45)C3)ccc21 [Compound 2.070, (R)-N-(1-((1-(methylsulfonyl)-1,2,3,4-tetrahydroquinolin-6-yl)methyl)pyrrolidin-3-yl)isoquinolin-5-amine] | 286 nM |  | 48.4 nM | 
